# Legend:
# A2780 [1] = test: Growth inhibition of human A2780 cells at 10 uM after 72 hrs by MTT assay relative to control; assay type: functional; settings: A2780, 72 h, read-out: GI
# MCF7 [2] = test: Antiproliferative activity against human MCF7 cells after 72 hrs by MTT assay; assay type: functional, cell-based; settings: MCF7, 72 h
# MCF7 [3] = test: Growth inhibition of human MCF7 cells at 30 uM after 72 hrs by MTT assay relative to control; assay type: functional; settings: MCF7, 72 h, read-out: GI
# [4] = Growth inhibition of mouse NIH/3T3 cells at 30 uM after 72 hrs by MTT assay relative to control; assay type: cell-based, NIH3T3; settings: read-out: GI
# HeLa [5] = test: Antiproliferative activity against human HeLa cells after 72 hrs by MTT assay; assay type: functional, cell-based
# HeLa [6] = test: Growth inhibition of human HeLa cells at 10 uM after 72 hrs by MTT assay relative to control; assay type: functional; settings: read-out: GI
# HeLa [7] = test: Growth inhibition of human HeLa cells at 30 uM after 72 hrs by MTT assay relative to control; assay type: functional; settings: read-out: GI
# A2780 [8] = test: Antiproliferative activity against human A2780 cells after 72 hrs by MTT assay; assay type: functional, cell-based; settings: A2780, 72 h
# MCF7 [9] = test: Growth inhibition of human MCF7 cells at 10 uM after 72 hrs by MTT assay relative to control; assay type: functional; settings: MCF7, 72 h, read-out: GI
# [10] = Growth inhibition of mouse NIH/3T3 cells at 10 uM after 72 hrs by MTT assay relative to control; assay type: cell-based, NIH3T3; settings: read-out: GI
# A2780 [11] = test: Growth inhibition of human A2780 cells at 30 uM after 72 hrs by MTT assay relative to control; assay type: functional; settings: A2780, 72 h, read-out: GI
Structure (SMILES),inhibition of growth at 10 µM (A2780 [1]) [%],IC50 (MCF7 [2]) [µM],inhibition of growth at 30 µM (MCF7 [3]) [%],"inhibition at 72 h, 30 µM [4] [%]",IC50 (HeLa [5]) [µM],inhibition of growth at 10 µM (HeLa [6]) [%],inhibition of growth at 30 µM (HeLa [7]) [%],IC50 (A2780 [8]) [µM],inhibition of growth at 10 µM (MCF7 [9]) [%],"inhibition at 72 h, 10 µM [10] [%]",inhibition of growth at 30 µM (A2780 [11]) [%]
CCC[C@H]1[C@@H]2CCc3cc(OCc4cn([C@@H]5O[C@H](COC(C)=O)[C@@H](OC(C)=O)[C@H](OC(C)=O)[C@H]5OC(C)=O)nn4)ccc3[C@H]2CC[C@]1(C)/C=N/O,69.5,10.7,67.7,28.4,> 30,20.4,40,5.3,46.7,< 20,76.7
CCC[C@H]1[C@@H]2CCc3cc(OCc4cn([C@H]5O[C@H](COC(C)=O)[C@@H](OC(C)=O)[C@H](OC(C)=O)[C@@H]5OC(C)=O)nn4)ccc3[C@H]2CC[C@]1(C)/C=N/O,69.5,9.4,65.9,34.8,8.9,52.4,89.6,6.6,53.9,27.3,86.4
CCC[C@H]1[C@@H]2CCc3cc(OCc4cn(C[C@H]5O[C@H](OC)[C@H](OC(=O)c6ccccc6)[C@@H](OC(=O)c6ccccc6)[C@@H]5OC(=O)c5ccccc5)nn4)ccc3[C@H]2CC[C@]1(C)CO,< 20,–,< 20,–,–,< 20,< 20,–,< 20,–,< 20
CCC[C@H]1[C@@H]2CCc3cc(OCc4cn([C@@H]5O[C@H](COC(C)=O)[C@H](OC(C)=O)[C@H](OC(C)=O)[C@H]5OC(C)=O)nn4)ccc3[C@H]2CC[C@]1(C)/C=N/O,59.3,8,71.5,25.5,20.5,31.5,61.9,8.8,59.1,< 20,85.2
CCC[C@H]1[C@@H]2CCc3cc(OCc4cn([C@@H]5O[C@H](CO)[C@@H](O)[C@H](O)[C@H]5O)nn4)ccc3[C@H]2CC[C@]1(C)CO,< 20,–,< 20,–,–,< 20,< 20,–,< 20,–,< 20
CCC[C@H]1[C@@H]2CCc3cc(OCc4cn(C[C@H]5O[C@H](OC)[C@@H](OC(=O)c6ccccc6)[C@@H](OC(=O)c6ccccc6)[C@@H]5OC(=O)c5ccccc5)nn4)ccc3[C@H]2CC[C@]1(C)CO,< 20,–,< 20,–,–,< 20,< 20,–,< 20,–,< 20
CCC[C@H]1[C@@H]2CCc3cc(OCc4cn(C[C@H]5O[C@@H](OC)[C@H](OC(=O)c6ccccc6)[C@@H]5OC(=O)c5ccccc5)nn4)ccc3[C@H]2CC[C@]1(C)/C=N/O,< 20,–,< 20,–,–,24.3,< 20,–,< 20,–,< 20
CCC[C@H]1[C@@H]2CCc3cc(OCc4cn([C@H]5O[C@H](COC(C)=O)[C@@H](OC(C)=O)[C@H](OC(C)=O)[C@@H]5OC(C)=O)nn4)ccc3[C@H]2CC[C@]1(C)CO,34.9,–,54.3,–,–,51.9,41.5,–,26.3,–,36.5
CCC[C@H]1[C@@H]2CCc3cc(OCc4cn([C@@H]5O[C@H](COC(C)=O)[C@@H](OC(C)=O)[C@H](OC(C)=O)[C@H]5OC(C)=O)nn4)ccc3[C@H]2CC[C@]1(C)CO,21,–,45.5,–,–,34.5,23.9,–,27.4,–,19.5
CCC[C@H]1[C@@H]2CCc3cc(OCc4cn([C@@H]5O[C@H](COC(C)=O)[C@H](OC(C)=O)[C@H](OC(C)=O)[C@H]5OC(C)=O)nn4)ccc3[C@H]2CC[C@]1(C)CO,< 20,–,61.9,–,–,23.9,31.8,–,< 20,–,32.7
CCC[C@H]1[C@@H]2CCc3cc(OCc4cn(C[C@H]5O[C@H](OC)[C@H](OC(=O)c6ccccc6)[C@@H](OC(=O)c6ccccc6)[C@@H]5OC(=O)c5ccccc5)nn4)ccc3[C@H]2CC[C@]1(C)/C=N/O,28.4,–,< 20,–,–,< 20,< 20,–,< 20,–,45.7
CCC[C@H]1[C@@H]2CCc3cc(OCc4cn([C@@H]5O[C@H](CO)[C@@H](O)[C@H](O)[C@H]5O)nn4)ccc3[C@H]2CC[C@]1(C)/C=N/O,< 20,> 30,< 20,–,> 30,< 20,31.5,27.4,< 20,–,57.9
CCC[C@H]1[C@@H]2CCc3cc(OCc4cn(C[C@H]5O[C@@H](OC)[C@H](OC(=O)c6ccccc6)[C@@H]5OC(=O)c5ccccc5)nn4)ccc3[C@H]2CC[C@]1(C)CO,< 20,–,< 20,–,–,< 20,< 20,–,< 20,–,< 20
CCC[C@H]1[C@@H]2CCc3cc(OCc4cn(C[C@H]5O[C@H](OC)[C@@H](OC(=O)c6ccccc6)[C@@H](OC(=O)c6ccccc6)[C@@H]5OC(=O)c5ccccc5)nn4)ccc3[C@H]2CC[C@]1(C)/C=N/O,< 20,–,< 20,–,–,< 20,< 20,–,< 20,–,< 20

# From ChEMBL document CHEMBL4014294, “Synthesis and in vitro investigation of potential antiproliferative monosaccharide-d-secoestrone bioconjugates” (Bioorg Med Chem Lett, 2017)
